Results published in US20240041877A1, “DOSAGE REGIME AND METHOD FOR TREATING PULMONARY ARTERIAL HYPERTENSION” (Altavant Sciences GmbH, priority 2019, published 2024).

Assay: Part 2 (MAD): plasma pharmacokinetics after BID oral KAR5585 for 14 days (incl. accumulation ratios and dose proportionality)
[1] = 200 mg/dose Fed Cohort 3, Day 1 PM, Geo. Mean
[2] = 200 mg/dose Fed Cohort 3, Day 1 PM, Mean
[3] = 200 mg/dose Fed Cohort 3, Day 7 AM, Geo. Mean
[4] = 200 mg/dose Fed Cohort 3, Day 7 AM, Mean
[5] = 200 mg/dose Fed Cohort 3, Day 7 PM, Geo. Mean
[6] = 200 mg/dose Fed Cohort 3, Day 7 PM, Mean
[7] = 200 mg/dose Fed Cohort 3, Day 14, Geo. Mean
[8] = 200 mg/dose Fed Cohort 3, Day 14, Mean
[9] = 400 mg/dose Fasted Cohort 4, Day 1 AM, Geo. Mean
[10] = 400 mg/dose Fasted Cohort 4, Day 1 AM, Mean

Source text: Food effect was to be evaluated in Part 1, Period 2.
Pharmacokinetic data were to be summarized descriptively.

## CCOC(=O)[C@@H]1CC2(CCN(c3cc(O[C@H](c4ccc(Cl)cc4-c4ccccc4)C(F)(F)F)nc(N)n3)CC2)CN1 [KAR5585, (S)-ethyl 8-(2-amino-6-((R)-1-(5-chloro-[1,1′-biphenyl]-2-yl)-2,2,2-trifluoroethoxy)pyrimidin-4-yl)-2,8-diazaspiro[4.5]decane-3-carboxylate]
[1]
  C12: 9.57 ng/mL
  CL/F: 493 L/h
  Cmax: 85.4 ng/mL
  Cmax/D: 0.427 (ng/mL)/mg
  t1/2: 4.24 h
[2]
  AUC0-12: 344 ng·h/mL
  AUC0-24: 601 ng·h/mL
  AUC0-24/D: 1.5 (hr*ng/mL)/mg
  AUC0-∞: 417 ng·h/mL
  C12: 9.92 ng/mL
  CL/F: 507 L/h
  Cmax: 90.9 ng/mL
  Cmax/D: 0.455 (ng/mL)/mg
  t1/2: 4.34 h
[3]
  AUC0-12: 217 ng·h/mL
  AUC0-∞: 256 ng·h/mL
  C12: 7.36 ng/mL
  CL/F: 924 L/h
  Cmax: 45.6 ng/mL
  Cmax/D: 0.228 (ng/mL)/mg
  t1/2: 4.21 h
[4]
  AUC0-12: 230 ng·h/mL
  C12: 7.71 ng/mL
  CL/F: 978 L/h
  Cmax: 48.8 ng/mL
  Cmax/D: 0.244 (ng/mL)/mg
  t1/2: 4.30 h
200 mg/dose Fed Cohort 3, Day 7 AM, Median
  Tmax: 3.0 h
[5]
  AUC0-12: 201 ng·h/mL
  AUC0-24: 414 ng·h/mL
  AUC0-24/D: 1.03 (hr*ng/mL)/mg
  AUC0-∞: 289 ng·h/mL
  C12: 11.3 ng/mL
  CL/F: 869 L/h
  Cmax: 39.1 ng/mL
  Cmax/D: 0.195 (ng/mL)/mg
  t1/2: 5.58 h
[6]
  AUC0-12: 207 ng·h/mL
  AUC0-24: 431 ng·h/mL
  AUC0-24/D: 1.08 (hr*ng/mL)/mg
  AUC0-∞: 290 ng·h/mL
  C12: 12.2 ng/mL
  CL/F: 890 L/h
  Cmax/D: 0.213 (ng/mL)/mg
  t1/2: 6.20 h
[7]
  AUC0-24: 199 ng·h/mL
  AUC0-24/D: 0.993 (hr*ng/mL)/mg
  C24: BLQ
  CL/F: 1130 L/h
  Cmax/D: 0.217 (ng/mL)/mg
[8]
  AUC0-12: 188 ng·h/mL
  AUC0-24: 212 ng·h/mL
  AUC0-24/D: 1.06 (hr*ng/mL)/mg
  AUC0-∞: 216 ng·h/mL
  C24: BLQ
  CL/F: 1200 L/h
  Cmax: 48.8 ng/mL
  Cmax/D: 0.244 (ng/mL)/mg
400 mg KAR5585 BID, fed
  Mean CL/F, Day 1: 1730 L/h
  Mean steady-state CL/F, Day 14: 1140 L/h
[9]
  AUC0-12: 253 ng·h/mL
  AUC0-∞: 272 ng·h/mL
  C12: 7.44 ng/mL
  CL/F: 1470 L/h
  Cmax: 74.0 ng/mL
  Cmax/D: 0.185 (ng/mL)/mg
  t1/2: 3.00 h
[10]
  AUC0-12: 281 ng·h/mL
  C12: 7.49 ng/mL
  CL/F: 1730 L/h
